The numbers were not newly measured in paper PMC7751758, “Repurposing Sigma-1 Receptor Ligands for COVID-19 Therapy?” (Frontiers in Pharmacology, 2020), which cites them from elsewhere.

Data set [1] relates to HCoV-229E. The following applies: replication in cell culture.
Data set [2] deals with EBV. The following applies: infection of B lymphocytes.
For data set [3], the target named is Sigma-1 receptor. The note with it: for Ki: read-out: Sigma-1 receptor affinity Ki; for IC50: read-out: Sigma-1 receptor affinity IC50.
Data set [4] concerns MERS-CoV.
Data set [5] deals with SARS-CoV.
In data set [6] the test system is HCV infection. The following applies: without significantly reducing cell biomass; ref Mingorance et al., 2014.
In data set [7] the test system is CHIKV. The following applies: cytopathic effect induced by Chikungunya virus and other alphaviruses (Semliki Forest virus and Sindbis virus).
Data set [8] concerns EBOV. The note with it: mouse, in vivo.
Data set [9] has as its system EBOV.
Data set [10] has as its system Ebola virus (EBOV).
Data set [11] has as its system HCV-induced cytopathic effect on the engineered cell line n4mBid. The note with it: leads of the cell protection screen; ref Chockalingam et al., 2010.
Data set [12] has as its system HCV infection of human hepatocarcinoma Huh-7 cells. The note with it: absence of cytotoxicity at low micromolar and submicromolar concentrations; ref Gastaminza et al., 2010.
In data set [13] the test system is H5N1 virus in A549 lung epithelial cells.
Data set [14] deals with H5N1 virus. The note with it: mouse, in vivo.
Data set [15] concerns COVID-19.
For data set [16] the following is noted: associated with bioaccumulation of the drugs; ref Palmeira et al., 2020.
Data set [17] deals with SARS-CoV-2 in Huh-7 cells. The note with it: devoid of cytotoxicity, ref Mirabelli et al., 2020.
The test system of data set [18] is EBOV. The note with it: guinea pig, in vivo.

The structures appear in SMILES notation. Values joined by “and” are separate entries in the source; they are usually repeats but may differ in a detail not shown here. Identical values can stand only once. “Also recorded” adds a separate entry of the source. Like-named read-outs stand apart in the source and are kept apart here.

The term Ki denotes the equilibrium dissociation constant of an inhibitor or competing ligand from its target. Take `CN(C)CCCN1c2ccccc2Sc2ccc(Cl)cc21` [Chlorpromazine]: the “Antiviral activity: Virus” value in data set [1] (ref de Wilde et al., 2014, listed as chlorpromazine) is reported as “inhibited the replication”; in data set [2] (ref Nemerow and Cooper, 1984, listed as chlorpromazine), “inhibit infection of B lymphocytes”; in data set [4], “in vitro activity”; in data set [5], “inhibited the replication; also recorded: in vitro activity; also recorded: SARS-CoVSARS-CoV-2”; in data set [7] (ref Pohjala et al., 2011, listed as chlorpromazine), “inhibition of the cytopathic effect”. Also, the inhibition constant (Ki) in [3] is 146 nM. Besides, in data set [6], the “reduction of HCV infection” value was “more than one order of magnitude”.

One may read the IC50 as the point on the concentration scale where inhibition reaches its midpoint. As for `CC(C)COCC(CN(Cc1ccccc1)c1ccccc1)N1CCCC1` (stereo not drawn) [Bepridil], the “protection in a murine EBOV infection model” value in data set [8] is reported as “protective ability”. Moreover, the half-inhibitory concentration (IC50) in data set [3] is 365 nM. The “Antiviral activity: Virus” value in [9] is given as “active”.

Consider `CN1[C@@H]2CC[C@H]1C[C@@H](OC(c1ccccc1)c1ccccc1)C2` [Benztropine], for which the cellular toxicity in data set [10] is listed as below 30%. The viral inhibition in data set [10] is reported as above 50%. For the same compound, the “Antiviral activity: Virus” value in [9] is “active”; in data set [4], “in vitro activity”; in [5], “in vitro activity; also recorded: SARS-CoV SARS-CoV-2”. Further, in data set [6], the “reduction of HCV infection” value was “more than one order of magnitude”.

Take `CN1CCN(CCCN2c3ccccc3Sc3ccc(C(F)(F)F)cc32)CC1` [Trifluoperazine]: the “alleviation of HCV-induced cytopathic effect (n4mBid cell viability relative to untreated cells)” value in [11] is reported as “increase n4mBid cell viability”. Moreover, the “reduction in HCV infection of Huh-7 cells, as compared to the vehicle DMSO control” value (from here on “reduction in HCV infection”) in data set [12] is above 85%. Moreover, the “Antiviral activity: Virus” value in [2] (ref Nemerow and Cooper, 1984, listed as trifluoperazine) was “inhibit infection of B lymphocytes”.

Regarding `CN1CCC(CN2c3ccccc3Sc3ccccc32)C1` (stereo not drawn) [Methdilazine], the IC50 in data set [3] was 167 nM. Further, the “Antiviral activity: Virus” value in [7] (ref Pohjala et al., 2011, listed as methdilazine) is “inhibition of the cytopathic effect”.

Take `CC(C(O)c1ccc(O)cc1)N1CCC(Cc2ccccc2)CC1` (stereo not drawn) [Ifenprodil]: the “cell viability in vitro” value in data set [13] was “increased cell viability”. For the same compound, the “alleviation of HCV-induced cytopathic effect (n4mBid cell viability relative to untreated cells)” value in data set [11] was “increase n4mBid cell viability; also recorded: inhibit the HCV-induced cytopathic effect”. Moreover, in data set [14], the “leukocyte infiltration and lung injury” value is recorded as “markedly decreased”; the survival entry is listed as “improved survival”. The half-maximal inhibitory concentration (IC50) in data set [3] is 5.5 nM.

As for `CCN(CC)CCOc1ccc(C(=C(Cl)c2ccccc2)c2ccccc2)cc1` [Clomiphene], in data set [10], the cellular toxicity is below 30% and the viral inhibition is on record as above 50%. Moreover, the “Antiviral activity: Virus” value in data set [9] is reported as “active”. For the same compound, the “reduction of HCV infection” value in [6] is “more than one order of magnitude”.

On to `O=C(CCCN1CCC(O)(c2ccc(Cl)cc2)CC1)c1ccc(F)cc1` [Haloperidol], for which the “reduction in HCV infection” value in data set [12] is recorded as above 85%. For the same compound, in data set [2] (ref Nemerow and Cooper, 1984, listed as haloperidol), the “Antiviral activity: Virus” value is reported as “inhibit infection of B lymphocytes”.

In the case of `OCCN1CCN(CCCN2c3ccccc3Sc3ccc(Cl)cc32)CC1` [Perphenazine], in data set [11], the “alleviation of HCV-induced cytopathic effect (n4mBid cell viability relative to untreated cells)” value is listed as “increase n4mBid cell viability”. Besides, the “reduction of HCV infection” value in data set [6] is “more than one order of magnitude”. The “Antiviral activity: Virus” value in data set [7] (ref Pohjala et al., 2011, listed as perphenazine) was “inhibition of the cytopathic effect”.

As for `CN(C)CCC=C1c2ccccc2CCc2ccccc21` [Amitriptyline], the “viability of A549 cells infected with H5N1” value in data set [13] was “increased viability”. Moreover, in data set [11], the “alleviation of HCV-induced cytopathic effect (n4mBid cell viability relative to untreated cells)” value is on record as “increase n4mBid cell viability; also recorded: inhibit the HCV-induced cytopathic effect”. In data set [14], the infiltrating cell count result is on record as “reduced”; the “lung edema and survival” value is on record as “improved”; the lung injury result is “decreased”. In [3], the IC50 was 216 nM and 300 nM; the inhibitory constant (Ki) is 287 nM.

`CCN(CCO)CCCC(C)Nc1ccnc2cc(Cl)ccc12` (stereo not drawn) [Hydroxychloroquine]: in data set [15] (first clinical studies, ref Geleris et al., 2020, Mitjà et al., Roustit et al.), the “efficacy in COVID-19 patients” value is “do not support efficacy”. Besides, the “adverse drug reactions in patients with COVID-19” value in data set [15] (human, in vivo) is reported as “serious adverse drug reactions”. Besides, the “decreasing the likelihood of death or speeding recovery” value in [15] (large, randomized clinical trial in hospitalized patients, ref FDA communication, 2020) is reported as “no benefit”. The IC50 in data set [3] is 2120 nM. Besides, the “Antiviral activity: Virus” value in [4] and in [5] was “in vitro activity” in each case. In [16], the side effects result is “serious retinopathies and cardiopathies”.

In the case of `O=C(c1ccc(OCCN2CCCCC2)cc1)c1c(-c2ccc(O)cc2)sc2cc(O)ccc12` [Raloxifene], the “alleviation of HCV-induced cytopathic effect (n4mBid cell viability relative to untreated cells)” value in [11] is “increase n4mBid cell viability”. In data set [3], the IC50 is 122 nM and the inhibition constant Ki is 38 nM. The “reduction of HCV infection” value in data set [6] is given as “more than one order of magnitude”.

As to `Cc1cccc(C)c1OCC(=O)N[C@@H](Cc1ccccc1)[C@@H](O)C[C@H](Cc1ccccc1)NC(=O)[C@H](C(C)C)N1CCCNC1=O` [lopinavir], the “Antiviral activity: Virus” value in data set [1] (ref de Wilde et al., 2014) was “inhibited the replication”; in data set [5] it was “inhibited the replication”.

Turning to `CN(C)C(=O)C(CCN1CCC(O)(c2ccc(Cl)cc2)CC1)(c1ccccc1)c1ccccc1` [Loperamide], the “Antiviral activity: Virus” value in [1] (ref de Wilde et al., 2014, listed as loperamide) is given as “inhibited the replication”; in data set [5], “inhibited the replication”.

Regarding `CN1CCN(CCCN2c3ccccc3Sc3ccc(Cl)cc32)CC1` [Prochlorperazine], the “reduction in HCV infection” value in data set [12] is on record as above 85%. Further, in [10], the cellular toxicity was below 30% and the viral inhibition is recorded as above 50%. Besides, the “Antiviral activity: Virus” value in data set [2] (ref Nemerow and Cooper, 1984) is “inhibit infection of B lymphocytes”. The “Antiviral activity: Virus” value in data set [9] is on record as “active”.

On to `CN(C)CCCN1c2ccccc2CCc2ccc(Cl)cc21` [Clomipramine], for which the “Antiviral activity: Virus” value in [9] is “active”; in [4] it was “in vitro activity”; in [5] it was “in vitro activity; also recorded: SARS-CoV SARS-CoV-2”. For the same compound, the “reduction of HCV infection” value in data set [6] was “more than one order of magnitude”.

As to `COc1ccc(CCN(C)CCCC(C#N)(c2ccc(OC)c(OC)c2)C(C)C)cc1OC` (stereo not drawn) [Verapamil], in data set [17], the antiviral potency result is given as “below 1 µM”. Moreover, in data set [3], the IC50 was […].

`CSc1ccc2c(c1)N(CCC1CCCCN1C)c1ccccc1S2` (stereo not drawn) [Thioridazine]: the “Antiviral activity: Virus” value in data set [9] is given as “active”; in data set [7] (ref Pohjala et al., 2011, listed as thioridazine) it was “inhibition of the cytopathic effect”.

In the case of `CN(C)CCC=C1c2ccccc2COc2ccccc21` [Doxepin], the “reduction in HCV infection” value in data set [12] is above 85%. The “Antiviral activity: Virus” value in data set [7] (ref Pohjala et al., 2011, listed as doxepin) is listed as “inhibition of the cytopathic effect”.

Consider `CC[C@H]1OC(=O)[C@H](C)[C@@H](O[C@H]2C[C@@](C)(OC)[C@@H](O)[C@H](C)O2)[C@H](C)[C@@H](O[C@@H]2O[C@H](C)C[C@H](N(C)C)[C@H]2O)[C@](C)(O)C[C@@H](C)CN(C)[C@H](C)[C@@H](O)[C@]1(C)O` [azithromycin], for which the “survival of infected mice” value in data set [8] is on record as “increased survival”. In data set [18], the survival entry is reported as “none of the tested doses increased survival”.

On to `CCSc1ccc2c(c1)N(CCCN1CCN(C)CC1)c1ccccc1S2` [Thiethylperazine], for which, in [3], the IC50 is 528 nM. Further, the “Antiviral activity: Virus” value is “in vitro activity” in data set [4]; “in vitro activity; also recorded: SARS-CoV SARS-CoV-2” in data set [5]; “inhibition of the cytopathic effect” in data set [7] (ref Pohjala et al., 2011, listed as thiethylperazine).

Regarding `CC(CN1c2ccccc2Sc2ccccc21)N(C)C` (stereo not drawn) [Promethazine], the “Antiviral activity: Virus” value in data set [2] (ref Nemerow and Cooper, 1984, listed as promethazine) is “inhibit infection of B lymphocytes”; in data set [4], “in vitro activity”; in data set [5] it was “in vitro activity; also recorded: SARS-CoV SARS-CoV-2”. In addition, the IC50 in [3] was 857 nM.

`CN[C@H]1CC[C@@H](c2ccc(Cl)c(Cl)c2)c2ccccc21` [Sertraline]: the “protection in a murine EBOV infection model” value in data set [8] was “protective ability”. The “Antiviral activity: Virus” value in [9] was “active”.
